From ChEMBL document CHEMBL1201862, “PubChem BioAssay data set” (2004)
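Where inhibition never reached the appropriate level, the endpoint shown equals the highest concentration tested. Otherwise, values were interpolated linearly from a five-concentration, 48-hour dose response in 96-well plates. GI50 is the concentration that inhibits growth by half.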 The source made the active and inactive calls. Cut-off read from the data, not from the text of the source: active = GI50 up to about 1.1 µM and inactive = higher.

What was measured:
Test in all cases: NCI anticancer screen, dose series, 48 h
COLO 205 = tested on: COLO 205
DMS-114 = tested on: DMS-114
HCC 2998 = tested on: HCC 2998
HCT-116 = tested on: HCT-116
HL-60 = tested on: HL-60
HOP-92 = tested on: HOP-92
KM-20L2 = tested on: KM-20L2
KM12 = tested on: KM12
LOX IMVI = tested on: LOX IMVI
MOLT-4 = tested on: MOLT-4
NCI-H23 = tested on: NCI-H23
OVCAR-4 = tested on: OVCAR-4
OVCAR-5 = tested on: OVCAR-5
SNB-19 = tested on: SNB-19
SNB-78 = tested on: SNB-78
UO-31 = tested on: UO-31
RXF 393 = tested on: RXF 393
MCF7 = tested on: MCF7
MDA-N = tested on: MDA-N
PC-3 = tested on: PC-3

Compound	GI50 (COLO 205)	GI50 (DMS-114)	GI50 (HCC 2998)	GI50 (HCT-116)	GI50 (HL-60)	GI50 (HOP-92)	GI50 (KM-20L2)	GI50 (KM12)	GI50 (LOX IMVI)	GI50 (MOLT-4)	GI50 (NCI-H23)	GI50 (OVCAR-4)	GI50 (OVCAR-5)	GI50 (SNB-19)	GI50 (SNB-78)	GI50 (UO-31)	GI50 (RXF 393)	GI50 (MCF7)	GI50 (MDA-N)	GI50 (PC-3)
CCOC(=O)Nc1ccc(S(=O)(=O)OC)cc1.CCOC(=O)Nc1ccc(S(=O)(=O)OC)cc1.Cc1cn(C2CC(O)C(CO)O2)c(=O)[nH]c1=O	> 100 µM (inactive)	69.7 µM (inactive)	> 100 µM (inactive)	10 µM (inactive)	91.8 µM (inactive)	> 100 µM (inactive)	> 100 µM (inactive)	> 100 µM (inactive)	18.3 µM (inactive)	> 100 µM (inactive)	> 100 µM (inactive)	86.3 µM (inactive)	> 100 µM (inactive)	> 100 µM (inactive)	> 100 µM (inactive)	> 100 µM (inactive)	–	–	–	–
COC(=O)/C(=N\NC(=O)c1ccccc1O)C(C#N)c1ccccc1 (stereo not drawn)	> 50 µM (inactive)	15.9 µM (inactive)	> 50 µM (inactive)	17.3 µM (inactive)	16.3 µM (inactive)	19.9 µM (inactive)	> 50 µM (inactive)	24.1 µM (inactive)	19.4 µM (inactive)	22.3 µM (inactive)	20.1 µM (inactive)	> 43.2 µM (inactive)	20.9 µM (inactive)	23.2 µM (inactive)	23.4 µM (inactive)	12.9 µM (inactive)	16.5 µM (inactive)	–	–	–
O=C(N/C(=C\c1cc(Cl)ccc1Cl)c1nc2ccccc2[nH]1)c1ccccc1	–	35.3 µM (inactive)	17.9 µM (inactive)	–	21.2 µM (inactive)	8.41 µM (inactive)	34 µM (inactive)	27.4 µM (inactive)	–	14.9 µM (inactive)	23.8 µM (inactive)	30.1 µM (inactive)	52.2 µM (inactive)	46.9 µM (inactive)	45.4 µM (inactive)	20.2 µM (inactive)	21.3 µM (inactive)	–	–	–
COc1cc2c(c(OC)c1OC)-c1ccc(SC)c(=O)cc1C(CC(=O)Oc1cccc([N+](=O)[O-])c1)C2 (stereo not drawn)	0.489 µM (active)	0.312 µM (active)	0.161 µM (active)	0.384 µM (active)	0.255 µM (active)	3.09 µM (inactive)	0.585 µM (active)	0.424 µM (active)	0.867 µM (active)	1.15 µM (inactive)	0.78 µM (active)	5.66 µM (inactive)	–	4.62 µM (inactive)	0.481 µM (active)	2.76 µM (inactive)	0.139 µM (active)	–	–	–
COC1OC(CO)C(O)C1N (stereo not drawn)	> 100 µM (inactive)	> 100 µM (inactive)	–	> 100 µM (inactive)	> 100 µM (inactive)	> 100 µM (inactive)	> 100 µM (inactive)	> 100 µM (inactive)	> 100 µM (inactive)	> 100 µM (inactive)	> 100 µM (inactive)	> 100 µM (inactive)	> 100 µM (inactive)	> 100 µM (inactive)	> 100 µM (inactive)	–	> 100 µM (inactive)	–	–	–
Cc1c2ccccc2c(C)c2c3c(ccc12)C(=O)C=CC3=O	15.7 µM (inactive)	11.8 µM (inactive)	35.3 µM (inactive)	22.5 µM (inactive)	2.15 µM (inactive)	15.1 µM (inactive)	41.9 µM (inactive)	27.3 µM (inactive)	25.8 µM (inactive)	2.26 µM (inactive)	32.3 µM (inactive)	23.4 µM (inactive)	> 100 µM (inactive)	> 100 µM (inactive)	16.3 µM (inactive)	18.2 µM (inactive)	13 µM (inactive)	–	–	–
CN1C=C(C(N)=O)Cc2ccsc21	> 100 µM (inactive)	> 100 µM (inactive)	> 100 µM (inactive)	> 100 µM (inactive)	> 100 µM (inactive)	> 100 µM (inactive)	> 100 µM (inactive)	> 100 µM (inactive)	–	> 100 µM (inactive)	> 100 µM (inactive)	> 100 µM (inactive)	> 100 µM (inactive)	> 100 µM (inactive)	> 100 µM (inactive)	> 100 µM (inactive)	> 100 µM (inactive)	–	–	–
NNC(=O)N/N=C1\C(=O)N(c2nccs2)C(=O)C(=O)C1c1nc2ccccc2s1 (stereo not drawn)	> 100 µM (inactive)	> 100 µM (inactive)	> 100 µM (inactive)	> 100 µM (inactive)	–	> 100 µM (inactive)	> 100 µM (inactive)	> 100 µM (inactive)	> 100 µM (inactive)	–	> 100 µM (inactive)	> 100 µM (inactive)	> 100 µM (inactive)	> 100 µM (inactive)	> 100 µM (inactive)	> 100 µM (inactive)	> 100 µM (inactive)	–	–	–
COc1ccc(NC(=O)C(=O)Cc2ccc([N+](=O)[O-])c([N+](=O)[O-])c2CC(=O)C(=O)Nc2ccc(OC)cc2OC)c(OC)c1	> 100 µM (inactive)	> 100 µM (inactive)	> 100 µM (inactive)	> 100 µM (inactive)	> 100 µM (inactive)	> 100 µM (inactive)	> 100 µM (inactive)	> 100 µM (inactive)	> 100 µM (inactive)	> 100 µM (inactive)	> 100 µM (inactive)	> 100 µM (inactive)	> 100 µM (inactive)	> 100 µM (inactive)	> 100 µM (inactive)	> 100 µM (inactive)	> 100 µM (inactive)	–	–	–
CN(C)CCNC(=O)c1ccc2ccc3cccnc3c2n1	8.24 µM (inactive)	12.1 µM (inactive)	10.5 µM (inactive)	4.02 µM (inactive)	26.4 µM (inactive)	16.4 µM (inactive)	9.57 µM (inactive)	18.2 µM (inactive)	9.51 µM (inactive)	3.44 µM (inactive)	17.1 µM (inactive)	14.5 µM (inactive)	14.6 µM (inactive)	19.6 µM (inactive)	7.78 µM (inactive)	12.2 µM (inactive)	12.8 µM (inactive)	–	–	–
CC(=O)N(C)c1ccc2ncccc2c1[N+](=O)[O-]	–	> 100 µM (inactive)	> 100 µM (inactive)	> 100 µM (inactive)	> 100 µM (inactive)	> 100 µM (inactive)	> 100 µM (inactive)	> 100 µM (inactive)	> 100 µM (inactive)	> 100 µM (inactive)	> 100 µM (inactive)	> 100 µM (inactive)	> 100 µM (inactive)	> 100 µM (inactive)	> 100 µM (inactive)	> 100 µM (inactive)	> 100 µM (inactive)	–	–	–
O=C(O/C(=C(/N=N/c1ccccc1)c1ccccc1)c1ccccc1)c1ccccc1	–	> 100 µM (inactive)	> 100 µM (inactive)	> 100 µM (inactive)	–	82 µM (inactive)	> 100 µM (inactive)	> 100 µM (inactive)	–	> 100 µM (inactive)	> 100 µM (inactive)	> 100 µM (inactive)	> 100 µM (inactive)	> 100 µM (inactive)	> 100 µM (inactive)	> 100 µM (inactive)	> 100 µM (inactive)	–	–	–
C=CC/N=C1/N=C(CC(=O)OCC)CS1	> 100 µM (inactive)	> 100 µM (inactive)	> 100 µM (inactive)	> 100 µM (inactive)	> 100 µM (inactive)	> 100 µM (inactive)	> 100 µM (inactive)	> 100 µM (inactive)	> 100 µM (inactive)	–	> 100 µM (inactive)	> 100 µM (inactive)	> 100 µM (inactive)	> 100 µM (inactive)	> 100 µM (inactive)	> 100 µM (inactive)	> 100 µM (inactive)	–	–	–
BrC(Br)=C1C(=C(Br)Br)C(Br)C1Br (stereo not drawn)	0.849 µM (active)	0.256 µM (active)	0.142 µM (active)	0.302 µM (active)	< 0.0125 µM (active)	1.34 µM (inactive)	1.38 µM (inactive)	0.61 µM (active)	0.0706 µM (active)	0.121 µM (active)	0.284 µM (active)	2.51 µM (inactive)	1.69 µM (inactive)	1.95 µM (inactive)	1.32 µM (inactive)	0.701 µM (active)	0.226 µM (active)	0.193 µM (active)	0.368 µM (active)	1.62 µM (inactive)
c1ccc(N2CCN(CCCN3CCc4c([nH]c5ccccc45)C3c3cccnc3)CC2)cc1 (stereo not drawn)	20.8 µM (inactive)	> 100 µM (inactive)	40.4 µM (inactive)	35.2 µM (inactive)	20 µM (inactive)	> 100 µM (inactive)	39.4 µM (inactive)	51.4 µM (inactive)	41.2 µM (inactive)	30.4 µM (inactive)	> 100 µM (inactive)	98.9 µM (inactive)	> 100 µM (inactive)	> 100 µM (inactive)	> 100 µM (inactive)	> 100 µM (inactive)	> 100 µM (inactive)	–	–	–
CN1CCC(O)C(CNC23CC4CC(CC(C4)C2)C3)C1 (stereo not drawn)	> 100 µM (inactive)	> 100 µM (inactive)	–	–	> 100 µM (inactive)	85.1 µM (inactive)	59 µM (inactive)	> 100 µM (inactive)	> 100 µM (inactive)	> 100 µM (inactive)	> 100 µM (inactive)	> 100 µM (inactive)	> 100 µM (inactive)	> 100 µM (inactive)	> 100 µM (inactive)	> 100 µM (inactive)	62.2 µM (inactive)	–	–	–
